Values quoted from earlier work in patent US20040059096A1, “Anti-ciguatoxin monoclonal antibody” (priority 2001, published 2004).

Conditions: species and route not given

Which LD50 does the source give for C[C@@H]1C[C@@H]2O[C@@H]3[C@@H](C)[C@H](O)[C@@H]4OC5(C[C@H](O)CO5)[C@@H](C)[C@H](C)[C@H]4O[C@H]3C[C@H]2O[C@H]2C[C@H]3O[C@@H]4/C=C\C[C@H]5O[C@H]6C=C[C@H]7O[C@H]8[C@H](O)[C@H]9O[C@@H](/C=C/[C@H](O)CO)C=CC[C@@H]9O[C@@H]8C[C@@H]7O[C@@H]6C=C[C@@H]5O[C@@H]4C[C@@H](O)[C@]3(C)O[C@@H]2C1 (stereo partly shown) [CTX] here?
Its LD50 is 0.35 µg/kg.
